According to patent US20120107323A1, “KINASE PROTEIN BINDING INHIBITORS” (University of Florida, priority 2009, published 2012):

Columns and labels:
[1] = tested on: SK-MEL-28 melanoma cells; assay: Cell viability (MTT), SK-MEL-28; type: cell-based; details: Homo sapiens; SK-MEL-28, 72 hours; read-out: IC50 of INT2-31, cell viability
Description: Cell viability (MTT) and CFSE Proliferation assay: Cells were plated in 96-well plates and let adhere overnight. After cell treatment, cell viability was measured by 3-(4,5-dimethylthiazol-2-yl)-2,5-diphenyl tetrazolium bromide (MTT) assay (CellTiter 96® Aqueous, Promega, Madison, Wis.).
Cell viability and detachment assays: After cells were treated with siRNA transfection, cell viability was measured by 3-(4,5-dimethylthiazol2-yl)-2,5-diphenyl tetrazolium bromide (MTT) assay (CellTiter 96® AQueous, Promega, Madison, Wis.). Briefly, 20 μl of the tetrazolium compound was added to each well. The cells were then incubated at 37° C. for 1 h. The plate was read at 490 nm with a plate reader to determine the viability. In detachment assays, detached and attached cells were harvested separately and counted in a hemocytometer. The percentage of detachment was calculated by dividing the number of detached cells by the total number of cells. Apoptosis assays: After treatment, attached and detached cells were collected, counted and prepared for terminal uridine deoxynucleotidyl transferase (TUNEL) assay by utilizing an APO-BRDU kit (BD Pharmingen, San Diego, Calif.) according to the manufacturer's instructions. Stained cells were analyzed with a fluorescence-activated cell sorting-Calibur flow cytometer (BD Biosciences). […] Apoptotic cells were also analyzed by Hoechst staining. […]

[2] = tested on: FAK and IGF-1R pathway effectors; assay: Western blot of signaling in melanoma cell lines; type: cell-based, human
Excerpt: Computational Docking The crystal structures of the N-terminal domain of FAK (PDB code 2AL6) (22) and the kinase domain of IGF-1R(PDB 1P40A) (23) were utilized for in silico molecular modeling of their interaction as previously described. The three-dimensional coordinates of compound NSC344553 (INT2-31), obtained from the database of the National Cancer Institute, Developmental Therapeutics Program (NCI/DTP), were docked onto the predicted interface of the amino-terminus of FAK (amino acids 127-243) with the intracytoplasmic portion of IGF-1R (21). All docking calculations were performed with the University of California-San Francisco DOCK 5.1 program, using a clique-matching algorithm to orient small molecule structures with sets of spheres that describe the target sites on FAK (37). 100 orientations were created for NSC344553 in the target site and were scored using the computer program grid-based scoring function. Docking calculations were performed on the University of Florida High Performance Computing supercomputing cluster (http:hpc.ufl.edu). The intermolecular energies for all configurations of NSC 344553 in binding to FAK-NT2 were calculated as the sum of electrostatic and van der Waals energies. These energy terms were evaluated as correlation functions, which were computed efficiently with Fast Fourier Transforms. Production of GST-fusion proteins: The FAK-GST plasmid constructs (pGEX vector) were kindly provided by Dr. Elena Kurenova (Roswell Park Cancer Institute, Buffalo, N.Y.). His-tagged IGF-1R protein was purchased from Blue Sky Biotechnology (Worchester, Mass.). The GST-fusion proteins (FAK fragments) were expressed in BL21 (DE3) Escherichia coli bacteria by incubation with 0.2 mM isopropyl b-D-galactopyranoside (IPTG) for 6 h at 37° C. The bacteria were lysed by sonication, and the fusion proteins were purified with glutathione-Sepharose 4B beads (GE Healthcare, NJ). Pull-down assay: For the pull-down binding assay, His-tagged IGF-1R fragment protein (200 ng) were precleared with GST immobilized on glutathione-Sepharose 4B beads. The precleared His-tagged protein was incubated with 0.2 μg of GST-FAK fusion protein immobilized on the glutathione-Sepharose 4B beads for 1 h at 4° C. and then washed 3× with PBS. Equal amounts of GST-fusion proteins were used for each binding assay. Bound proteins were boiled in 6× Laemmli buffer and analyzed by SDS-PAGE and Western blotting. Immunoprecipitation and western blotting: Cells were washed twice with ice cold 1×PBS and lysed in buffer containing 20 mM Tris, pH 7.4, 150 mM NaCl, 1% NP-40, 5 mM EDTA acid, protease inhibitors (Complete™ Protease Inhibitor, Roche, N.J.) and phosphatase inhibitors (Calbiochem, Calif.). For immunoprecipitation, 100-200 μg of total cell extract was used for each sample. The extracts were incubated with 1 μg of antibody overnight at 4° C. Next, 25 μl of protein A/G-agarose beads were added and the samples were incubated for 2 h at 4° C. The precipitates were washed 4× with lysis buffer and samples containing 30 μg of protein were resolved by SDS-PAGE. The intensity of the bands in the western blots was measured with scion image analysis software program. Short hairpin RNA Transfection of cells: Control shRNA (mock) and FAK shRNAs was obtained from Open Biosystems. The sequences of short hairpin RNAs against human FAK were: (5′-[…] TCCAATCGTTTTG-3′; 5′-[…]-3′) and control shRNA (mock) (5′-[…]-3′). For the transfection of cells (2×10^5 cells/well) were seeded into 6-well plates in 2 ml medium one day prior to transfection. According to the protocols of the manufacturer, cells were transfected using Lipofectamine 2000 reagent (Invitrogen, CA).
Western blotting: boiled samples containing 30 μg of protein were resolved by sodium dodecyl sulfate-polyacrylamide gel electrophoresis followed by transferring to polyvinylidene difluoride membrane (Bio-Rad, Hercules, Calif.). […]

With `CSc1ncnc2c1ccn2C1O[C@H](COP(=O)(O)O)[C@@H](O)[C@H]1O` (stereo partly drawn) [INT2-31, 4-(Methylthio)-7-(5-O-phosphono-D-ribofuranosyl)-{7H-Pyrrolo[2,3-d]pyrimidine}] the IC50 [1] was 22.1 µM, the “dose necessary to significantly decrease p-Akt” value ([2]; A375 cells) was 1 to 5 µM and the “time course of Akt phosphorylation” value ([2]; C8161, 5 μM, 24, 48 and 72 hours) was “some dephosphorylation after 24 hours of treatment with a sustained effect at 72 hours”. For the same compound, the “dose necessary to significantly decrease p-Akt” value ([2]; SK-MEL-28 cells) was 5 to 10 µM, the p-ERK ([2]; all cell lines, higher doses) was “slight decrease” and the “constitutive and IGF-1 induced signaling to AKT” value ([2]; three melanoma cell lines) was “consistent inhibition”. The “constitutive or IGF-1 induced phosphorylation of IGF-1R” value ([2]; three melanoma cell lines) was “no significant effect” and the “constitutive phosphorylation of FAK” value ([2]; three melanoma cell lines) was “no significant effect”.
